Molecules are shown by their SMILES. “And” between values parts separate entries of the source, which are not always exact repeats. Equal entries are not always repeated. The source made the active and inactive calls.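 Rule for the calls: active = fitted potency at or below 10 µM with a response change of at least 30% across doses and an acceptable curve fit; inactive = the rest.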

The target of one test is GTPase HRas (Homo sapiens) (UniProt P01112). Briefly: blockers of fluorescent GTP loading onto wildtype HRas – biochemical, GST-H-Ras beads, Bodipy-FL-GTP, flow cytometry, multiplex, round 2, SAR follow-up (AID 588630). As to conditions: Bodipy-FL-GTP binding. On the technique in general: A flow cytometer gives signals particle by particle.
Sequence of GTPase HRas (Homo sapiens) (P01112 whole entry, looked up): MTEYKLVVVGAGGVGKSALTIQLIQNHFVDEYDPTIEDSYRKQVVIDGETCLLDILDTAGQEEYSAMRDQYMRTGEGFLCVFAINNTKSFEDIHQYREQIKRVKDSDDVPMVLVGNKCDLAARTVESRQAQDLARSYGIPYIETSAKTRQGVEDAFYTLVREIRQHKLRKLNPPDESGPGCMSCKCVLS
What is called EC50 is the midpoint of the concentration-response curve. For the molecule `CC1(C)Cc2c(sc(NC(=S)NC(=O)c3cccs3)c2C(=O)O)CO1`, the EC50 is 35 nM.

Take `O=C(NC(=S)Nc1sc2c(c1C(=O)O)CCOC2)c1ccccc1`: the concentration giving a half-maximal response (EC50) is 106 nM and 242 nM.

Turning to `COc1ccccc1C(=O)NC(=S)Nc1sc2c(c1C(=O)O)CC(C)(C)OC2`, the EC50 is 1320 nM.

Consider `CC1(C)Cc2c(sc(NC(=S)NC(=O)c3cccc(F)c3)c2C(=O)O)CO1`, for which the concentration giving a half-maximal response (EC50) is 436 nM.

Turning to `CC1(C)Cc2c(sc(NC(=S)NC(=O)c3ccc(Br)cc3)c2C(=O)O)CO1`, the EC50 was 597 nM. As for `CC1Cc2c(sc(NC(=S)NC(=O)c3ccccc3)c2C(=O)O)CO1` (centres undefined), the EC50 is 201 nM. Still for that read-out and setting: as for `CC1(C)Cc2c(sc(NC(=S)NC(=O)c3ccccc3F)c2C(=O)O)CO1`, the figure is 359 nM; as for `CC1(C)Cc2c(sc(NC(=S)NC(=O)c3ccccc3Br)c2C(=O)O)CO1`, 1780 nM. Still for that read-out and setting: as for `Cc1ccc(C(=O)NC(=S)Nc2sc3c(c2C(=O)O)CC(C)(C)OC3)cc1`, the figure is 193 nM; as for `CC1(C)Cc2c(sc(NC(=S)NC(=O)C3CCCCC3)c2C(=O)O)CO1`, 625 nM.

As to `CC1(C)Cc2c(sc(NC(=S)NC(=O)c3ccc(F)cc3)c2C(=O)O)CO1`, the 50% effective concentration (EC50) is 98 nM. For `CC1(C)Cc2c(sc(NC(=S)NC(=O)c3ccco3)c2C(=O)O)CO1`, the EC50 was 79 nM.

In the case of `Cc1ccccc1C(=O)NC(=S)Nc1sc2c(c1C(=O)O)CC(C)(C)OC2`, the concentration giving a half-maximal response (EC50) is 444 nM. On to `COc1ccc(C(=O)NC(=S)Nc2sc3c(c2C(=O)O)CC(C)(C)OC3)cc1`, for which the EC50 was 250 nM. Regarding `CCC1(C)Cc2c(sc(NC(=S)NC(=O)c3ccccc3)c2C(=O)O)CO1` (centres undefined), the EC50 was 37 nM.

As for `CC1(C)Cc2c(sc(NC(=S)NC(=O)c3ccccc3)c2C(=O)O)CO1`, the EC50 was 20 nM. For `COc1cccc(C(=O)NC(=S)Nc2sc3c(c2C(=O)O)CC(C)(C)OC3)c1`, the EC50 is 275 nM. As for `CC1(C)CCc2sc(NC(=S)NC(=O)c3ccccc3)c(C(=O)O)c2C1`, the EC50 is 43 nM. Regarding `CC(C)(C)C1Cc2c(sc(NC(=S)NC(=O)c3ccccc3)c2C(=O)O)CO1` (centres undefined), the EC50 was 140 nM.

Turning to `O=C(NC(=S)Nc1sc2c(c1C(=O)O)CC1(CCCC1)OC2)c1ccccc1`, the EC50 was 31 nM. For the molecule `CC1(C)Cc2c(sc(NC(=O)NC(=O)c3ccccc3)c2C(=O)O)CO1`, the EC50 was 725 nM.

Turning to `Cc1cccc(C(=O)NC(=S)Nc2sc3c(c2C(=O)O)CC(C)(C)OC3)c1`, the 50% effective concentration (EC50) was 1390 nM.

Staying with this test, now noted: at 100 µM (top of the series).
In the case of `CC1(C)Cc2c(sc(NC(=S)Nc3ccccc3)c2C(=O)O)CO1`, the “% response (remaining GTP binding)” value was “inactive”. The same measure, in the same setting: the same measure for `CC1(C)Cc2c(sc(NC(=S)NC(=O)c3cccc(Br)c3)c2C(=O)O)CO1`: “inactive”.

The values above are taken from PubChem BioAssay AID588630 (NMMLSC, 2011).
